Test results as given in patent publication US12534452B2, “N-(1H-imidazol-2-yl)benzamide compound and pharmaceutical composition comprising the same as active ingredient” (KAINOS MEDICINE, INC., priority 2019, dated 2026).

Biological target: IRAK4 (Homo sapiens (Human), UniProt Q9NWZ3)
Test: In vitro IRAK4 phosphorylation activity assay
Type: biochemical
Conditions: [γ-33P]-ATP, myelin basic protein substrate, 40 minutes at room temperature; categories
How it was run: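 Radiometric filter-binding assay, no compound–kinase preincubation; 8 mM MOPS pH 7.0, 0.2 mM EDTA, 10 mM Mg acetate, 0.33 mg/mL myelin basic protein substrate, [γ-33P]-ATP. Reaction 40 min at room temperature, stopped with phosphoric acid, scintillation counting; IC50 reported in categories.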

Chain of IRAK4 (Q9NWZ3 whole entry): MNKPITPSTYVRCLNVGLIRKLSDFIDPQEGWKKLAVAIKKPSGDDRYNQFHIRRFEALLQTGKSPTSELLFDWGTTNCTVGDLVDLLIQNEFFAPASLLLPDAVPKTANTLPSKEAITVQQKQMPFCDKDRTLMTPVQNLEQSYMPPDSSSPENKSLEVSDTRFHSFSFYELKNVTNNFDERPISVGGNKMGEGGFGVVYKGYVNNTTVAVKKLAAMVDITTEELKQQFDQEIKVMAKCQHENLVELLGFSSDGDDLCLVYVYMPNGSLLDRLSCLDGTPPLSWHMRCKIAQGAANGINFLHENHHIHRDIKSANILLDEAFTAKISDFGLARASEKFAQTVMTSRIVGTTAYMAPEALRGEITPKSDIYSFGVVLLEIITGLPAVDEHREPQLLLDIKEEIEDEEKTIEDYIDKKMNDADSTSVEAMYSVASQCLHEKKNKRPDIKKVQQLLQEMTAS

SMILES | IC50 [nM]
O=C(Nc1nc(CCCCCCN2CCCCC2)cn1-c1ccccc1)c1cccc(-c2ccccn2)c1 [Example 269, N-(1-phenyl-4-(6-(piperidin-1-yl)hexyl)-1H-imidazol-2-yl)-3-(pyridin-2-yl)benzamide] | > 100
CN(C)C1CCN(C(=O)CCCCCc2cn(-c3ccccc3)c(NC(=O)c3cccc(-c4ccc5scnc5c4)c3)n2)CC1 [Example 291, 3-(benzo[d]thiazol-5-yl)-N-(4-(6-(4-(dimethylamino)piperidin-1-yl)-6-oxohexyl)-1-phenyl-1H-imidazol-2-yl)benzamide] | > 100
COC[C@H]1CCCN1C(=O)Cc1cn(-c2ccccc2)c(NC(=O)c2cccc(-c3cn[nH]c3)c2)n1 [Example 47, (R)—N-(4-(2-(2-(methoxymethyl)pyrrolidin-1-yl)-2-oxoethyl)-1-phenyl-1H-imidazol-2-yl)-3-(1H-pyrazol-4-yl)benzamide] | > 100
CCOC(C)n1cc(-c2cccc(C(=O)Nc3nc(CCCC(=O)NC4CC4)cn3-c3ccccc3)c2)cn1 (stereo not drawn) [Example 72, N-(4-(4-(cyclopropylamino)-4-oxobutyl)-1-phenyl-1H-imidazol-2-yl)-3-(1-(1-ethoxyethyl)-1H-pyrazol-4-yl)benzamide] | > 100
O=C(CCc1cn(-c2ccncc2)c(NC(=O)c2cccc(-c3cn[nH]c3)c2)n1)Nc1ccccc1 [Example 303, N-(4-(3-oxo-3-(phenylamino)propyl)-1-(pyridin-4-yl)-1H-imidazol-2-yl)-3-(1H-pyrazol-4-yl)benzamide] | > 100
COC(=O)Cc1cn(-c2ccccc2)c(NC(=O)c2cccc(-c3cn[nH]c3)c2)n1 [Example 42, methyl 2-(2-(3-(1H-pyrazol-4-yl)benzamido)-1-phenyl-1H-imidazol-4-yl)acetate] | 50 to 100
O=C(CCc1cn(Cc2ccccc2)c(NC(=O)c2cccc(-c3cn[nH]c3)c2)n1)Nc1ccccc1 [Example 292, N-(1-benzyl-4-(3-oxo-3-(phenylamino)propyl)-1H-imidazol-2-yl)-3-(1H-pyrazol-4-yl)benzamide] | > 100
O=C(CCc1cn(-c2cccc(Br)c2)c(NC(=O)c2cccc(-c3cn[nH]c3)c2)n1)Nc1ccccc1 [Example 294, N-(1-(3-bromophenyl)-4-(3-oxo-3-(phenylamino)propyl)-1H-imidazol-2-yl)-3-(1H-pyrazol-4-yl)benzamide] | 50 to 100
O=C(CCCCc1cn(-c2ccccc2)c(NC(=O)c2cccc(-c3cn[nH]c3)c2)n1)Nc1ccccc1 [Example 76, N-(4-(5-oxo-5-(phenylamino)pentyl)-1-phenyl-1H-imidazol-2-yl)-3-(1H-pyrazol-4-yl)benzamide] | < 50
O=C(CCc1cn(CC2CCCCC2)c(NC(=O)c2cccc(-c3cn[nH]c3)c2)n1)Nc1ccccc1 [Example 295, N-(1-(cyclohexylmethyl)-4-(3-oxo-3-(phenylamino)propyl)-1H-imidazol-2-yl)-3-(1H-pyrazol-4-yl)benzamide] | > 100
COC[C@@H]1CCCN1C(=O)CCCCc1cn(-c2ccccc2)c(NC(=O)c2cccc(-c3cn[nH]c3)c2)n1 [Example 86, (S)—N-(4-(5-(2-(methoxymethyl)pyrrolidin-1-yl)-5-oxopentyl)-1-phenyl-1H-imidazol-2-yl)-3-(1H-pyrazol-4-yl)benzamide] | < 50
O=C(Nc1nc(CCO)cn1-c1ccccc1)c1cccc(-c2cn[nH]c2)c1 [Example 103, N-(4-(2-hydroxyethyl)-1-phenyl-1H-imidazol-2-yl)-3-(1H-pyrazol-4-yl)benzamide] | < 50
Cn1cc(-c2cccc(C(=O)Nc3nc(CCCC(=O)N4CCN(C(C)(C)C)CC4)cn3-c3ccccc3)c2)cn1 [Example 181, N-(4-(4-(4-(tert-butyl)piperazin-1-yl)-4-oxobutyl)-1-phenyl-1H-imidazol-2-yl)-3-(1-methyl-1H-pyrazol-4-yl)benzamide] | < 50
Cn1cc(-c2cccc(C(=O)Nc3nc(CCCC(=O)NCCCN4CCCCC4)cn3-c3ccccc3)c2)cn1 [Example 158, 3-(1-methyl-1H-pyrazol-4-yl)-N-(4-(4-oxo-4-((3-(piperidin-1-yl)propyl)amino)butyl)-1-phenyl-1H-imidazol-2-yl)benzamide] | < 50
O=C(Nc1nc(CCC(=O)N2CC[C@H](C(=O)O)C2)cn1-c1ccccc1)c1cccc(-c2cn[nH]c2)c1 [Example 26, (S)-1-(3-(2-(3-(1H-pyrazol-4-yl)benzamido)-1-phenyl-1H-imidazol-4-yl)propanoyl)pyrrolidine-3-carboxylic acid] | > 100
O=C(Nc1nc(CCC(=O)N2CC[C@@H](C(=O)O)C2)cn1-c1ccccc1)c1cccc(-c2cn[nH]c2)c1 [Example 25, (R)-1-(3-(2-(3-(1H-pyrazol-4-yl)benzamido)-1-phenyl-1H-imidazol-4-yl)propanoyl)pyrrolidine-3-carboxylic acid] | 50 to 100
Cn1cc(-c2cccc(C(=O)Nc3nc(CCCCCCN4CCCC4)cn3-c3ccccc3)c2)cn1 [Example 222, 3-(1-methyl-1H-pyrazol-4-yl)-N-(1-phenyl-4-(6-(pyrrolidin-1-yl)hexyl)-1H-imidazol-2-yl)benzamide] | < 50
Cn1cc(-c2cccc(C(=O)Nc3nc(CCCCN4CCCC4=O)cn3-c3ccccc3)c2)cn1 [Example 224, 3-(1-methyl-1H-pyrazol-4-yl)-N-(4-(4-(2-oxopyrrolidin-1-yl)butyl)-1-phenyl-1H-imidazol-2-yl)benzamide] | < 50
O=C(Nc1nc(CCCCCCN2CCCCC2=O)cn1-c1ccccc1)c1cccc(-c2ccc3[nH]ncc3c2)c1 [Example 260, 3-(1H-indazol-5-yl)-N-(4-(6-(2-oxopiperidin-1-yl)hexyl)-1-phenyl-1H-imidazol-2-yl)benzamide] | < 50
Cn1cc(-c2cccc(C(=O)Nc3nc(CCCC(=O)NCCC(C)(C)O)cn3-c3ccccc3)c2)cn1 [Example 171, N-(4-(4-((3-hydroxy-3-methylbutyl)amino)-4-oxobutyl)-1-phenyl-1H-imidazol-2-yl)-3-(1-methyl-1H-pyrazol-4-yl)benzamide] | < 50
Cn1ncc2cc(-c3cccc(C(=O)Nc4nc(CCCCCC(=O)N5CCCCC5)cn4-c4ccccc4)c3)ccc21 [Example 251, 3-(1-methyl-1H-indazol-5-yl)-N-(4-(6-oxo-6-(piperidin-1-yl)hexyl)-1-phenyl-1H-imidazol-2-yl)benzamide] | > 100

Continued, values first:

IC50 [nM] | SMILES
< 50 | CNC(=O)CCc1cn(-c2ccccc2)c(NC(=O)c2cccc(-c3cn[nH]c3)c2)n1 [Example 33, N-(4-(3-(methylamino)-3-oxopropyl)-1-phenyl-1H-imidazol-2-yl)-3-(1H-pyrazol-4-yl)benzamide]
< 50 | Cn1cc(-c2cccc(C(=O)Nc3nc(CCCCC(=O)N4CCNCC4)cn3-c3ccccc3)c2)cn1 [Example 204, 3-(1-methyl-1H-pyrazol-4-yl)-N-(4-(5-oxo-5-(piperazin-1-yl)pentyl)-1-phenyl-1H-imidazol-2-yl)benzamide]
< 50 | CN1CCN(C(=O)CCCc2cn(-c3ccccc3)c(NC(=O)c3cccc(-c4ccc(N)nc4)c3)n2)CC1 [Example 274, 3-(6-aminopyridin-3-yl)-N-(4-(4-(4-methylpiperazin-1-yl)-4-oxobutyl)-1-phenyl-1H-imidazol-2-yl)benzamide]
< 50 | Cn1cc(-c2cccc(C(=O)Nc3nc(CCCC(=O)Nc4ccn(C)n4)cn3-c3ccccc3)c2)cn1 [Example 190, N-(4-(4-((1-methyl-1H-pyrazol-3-yl)amino)-4-oxobutyl)-1-phenyl-1H-imidazol-2-yl)-3-(1-methyl-1H-pyrazol-4-yl)benzamide]
< 50 | COC[C@@H]1CCCN1NC(=O)CCCCc1cn(-c2ccccc2)c(NC(=O)c2cccc(-c3cn[nH]c3)c2)n1 [Example 84, (S)—N-(4-(5-((2-(methoxymethyl)pyrrolidin-1-yl)amino)-5-oxopentyl)-1-phenyl-1H-imidazol-2-yl)-3-(1H-pyrazol-4-yl)benzamide]
< 50 | Cn1cc(-c2cccc(C(=O)Nc3nc(CCCCCCN4CCCC4=O)cn3-c3ccccc3)c2)cn1 [Example 225, 3-(1-methyl-1H-pyrazol-4-yl)-N-(4-(6-(2-oxopyrrolidin-1-yl)hexyl)-1-phenyl-1H-imidazol-2-yl)benzamide]
< 50 | O=C(Nc1nc(CCCCN2CCCCC2)cn1-c1ccccc1)c1cccc(-c2cn[nH]c2)c1 [Example 113, N-(1-phenyl-4-(4-(piperidin-1-yl)butyl)-1H-imidazol-2-yl)-3-(1H-pyrazol-4-yl)benzamide]
< 50 | O=C(CCCc1cn(-c2ccccc2)c(NC(=O)c2cccc(-c3cccc4[nH]ncc34)c2)n1)NC1CC1 [Example 249, N-(4-(4-(cyclopropylamino)-4-oxobutyl)-1-phenyl-1H-imidazol-2-yl)-3-(1H-indazol-4-yl)benzamide]
< 50 | O=C(Nc1nc(CCCCCCN2CCCCC2)cn1-c1ccccc1)c1cccc(-c2ccc3[nH]ncc3c2)c1 [Example 252, 3-(1H-indazol-5-yl)-N-(1-phenyl-4-(6-(piperidin-1-yl)hexyl)-1H-imidazol-2-yl)benzamide]
< 50 | COC[C@H]1CCCN1C(=O)CCCc1cn(-c2ccccc2)c(NC(=O)c2cccc(-c3cn[nH]c3)c2)n1 [Example 56, (R)—N-(4-(4-(2-(methoxymethyl)pyrrolidin-1-yl)-4-oxobutyl)-1-phenyl-1H-imidazol-2-yl)-3-(1H-pyrazol-4-yl)benzamide]
< 50 | O=C(Nc1nc(CCCCCCN2CCCCC2)cn1-c1ccccc1)c1cccc(-c2cccc3[nH]ncc23)c1 [Example 255, 3-(1H-indazol-4-yl)-N-(1-phenyl-4-(6-(piperidin-1-yl)hexyl)-1H-imidazol-2-yl)benzamide]
< 50 | Cn1cc(-c2cccc(C(=O)Nc3nc(CCCCCC(=O)NC4CC4)cn3-c3ccccc3)c2)cn1 [Example 199, N-(4-(6-(cyclopropylamino)-6-oxohexyl)-1-phenyl-1H-imidazol-2-yl)-3-(1-methyl-1H-pyrazol-4-yl)benzamide]
